Experiments:
TRAF6-UBC13 interaction = target: T1, TRAF6-UBC13 interaction (Homo sapiens, UniProt Q9Y4K3); assay: ALPHAScreen TRAF6WTStrepII-Ubc13FH interaction assay; format: binding; conditions: inhibition of TRAF6-UBC13 interaction
T1 construct: RING-Zincfinger1 (RZ1) domain (residues 50-159) of TRAF6 wildtype; made in house; host or cells: E. coli BL21 codon plus RIPL
T1 sequence (Q9Y4K3 50-159): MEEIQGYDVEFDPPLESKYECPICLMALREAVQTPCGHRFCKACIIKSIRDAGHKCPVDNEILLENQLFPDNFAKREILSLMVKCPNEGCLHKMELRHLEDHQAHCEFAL

[1] = tested on: human peripheral blood mononuclear cells (PBMCs); assay: Cytokine secretion of primary human PBMCs; format: cell-based
Method: For measurement of cytokine secretion, 2×10^5 Jurkat T-cells or primary CD4^+ T-cells or human PBMCs per sample were seeded, treated with compound for 6 hours and stimulated as indicated. 20 hours after stimulation, supernatants were harvested and analyzed with the IL-2, IL-1β and TNFα Ready-Set-Go! ELISA (2nd Generation) kits provided by Affymatrix eBioscience.
For isolation of peripheral blood mononuclear cells (PBMCs) from 50 mL human blood of three different donors, blood was mixed with 800 units of Heparin (Sigma-Aldrich) and centrifuged at 300×g for 10 minutes without brake. After removal of the plasma fraction, buffy coat was diluted in 2 volumes PBS and added on top of 15 ml Lymphoprep (STEMCELL technologies). After centrifugation at 160×g for 20 minutes at room temperature without brake, platelets were removed and the cell suspension was centrifuged again at 350 xg for 20 minutes without brake. Mononuclear cells from the intermediate layer were transferred to a new falcon and washed 3 times in PBS supplemented with 0.1% BSA and 2 mM EDTA. In the end, cells were resuspended in RPMI medium containing 10% FCS, 1% Penicillin/Streptomycin and 50 μM β-mercaptoethanol. Per sample, 2×10^5 cells were seeded and treated with compound for 6 hours. The cells were stimulated with either 1 μg/ml Lipopolysaccharide (LPS) or CD3/CD28 (1 μg hCD3 (IgG2A), 4 μg hCD28 (IgG1), 2 μg ant-IgG2A and 2 μg ant-IgG2A) or 20 ng/IL-1β. Supernatants for analysis of cytokine secretion were harvested 20 hours after stimulation.

[2] = tested on: TRAF6 auto-ubiquitination; assay: TRAF6 auto-ubiquitination in Jurkat T-cells; format: cell-based, human; conditions: PMA/Ionomycin
MURF/TRIM63 = target: T2, MURF/TRIM63 (Homo sapiens, UniProt Q969Q1); assay: In vitro ubiquitination assay, MURF/TRIM63; format: biochemical; conditions: K48 chain formation
T2 construct: purchased Boston Biochem one of K-102, K-260, K-200B, K-220, K-240, K-270
Method: For analysis of clAP1, MDM2, TRIM63, RNF4, ITCH and E6AP mediated poly-ubiquitination, the respective ubiquitin ligase kit from Boston Biochem (K-102, K-260, K-200B, K-220, K-240 and K-270) was used. Here, reaction buffer, E1, E2 and E3 enzyme (and p53 substrate in case of MDM2) were mixed and pre-incubated with compound or DMSO for 5 minutes at room temperature before adding Mg^2+-ATP and mono-ubiquitin for reaction start. Ubiquitination was visualized by Western Blot analyses.

T2 sequence (Q969Q1 whole entry): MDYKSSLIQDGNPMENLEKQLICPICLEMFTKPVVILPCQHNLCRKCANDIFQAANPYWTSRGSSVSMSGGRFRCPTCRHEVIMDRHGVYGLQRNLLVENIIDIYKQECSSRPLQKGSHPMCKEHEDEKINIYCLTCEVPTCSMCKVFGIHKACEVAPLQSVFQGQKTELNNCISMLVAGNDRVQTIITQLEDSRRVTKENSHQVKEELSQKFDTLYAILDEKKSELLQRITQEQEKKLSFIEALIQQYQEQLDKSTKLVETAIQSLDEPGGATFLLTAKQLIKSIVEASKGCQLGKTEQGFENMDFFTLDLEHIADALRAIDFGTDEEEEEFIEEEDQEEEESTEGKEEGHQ

- IC50 (TRAF6-UBC13 interaction): ≤ 3 µM
- S5A ubiquitination by MURF/TRIM63 (MURF/TRIM63): not affected
Structure (SMILES): Cc1nn(-c2ccc3nnc(C)n3n2)c(C)c1CCC(=O)N1CCC(Cc2ccccc2)CC1 [Compound 3, 1-(4-benzylpiperidin-1-yl)-3-(3,5-dimethyl-1-(3-methyl-[1,2,4]triazolo[4,3-b]pyridazin-6-yl)-1H-pyrazol-4-yl)propan-1-one]
- secretion of IL-2 and TNFα ([1]; human PBMCs stimulated with CD3/CD28): decreased levels
- secretion of IL-6 and TNFα ([1]; human PBMCs stimulated with IL-1β): attenuated
- secretion of IL-1β and TNFα ([1]; human PBMCs stimulated with LPS): reduced levels
- TRAF6 auto-ubiquitination upon TCR stimulation [2]: dose-dependently reduced
